Laboratory results from patent publication US20020137929A1, “1 - (3-heterocyclylphenyl) isothiourea, -isourea, -guanidine and -amidine herbicidal agents” (Intellectual Property Department, BASF Aktiengesellschaft, priority 1998, published 2002).

Columns and labels:
AMBEL (Ragweed, Common) = test: Postemergence herbicidal evaluation; type: in vivo, Ambrosia artemisifolia; conditions: postemergence
Summary of the method: (§1)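 Young plants, roughly two weeks from seeding, receive the active ingredient as a sprayed dispersion (acetone/water 50/50, 0.5% TWEEN 20) at 40 psi. Doses span about 0.0156 to 0.500 kg/ha. A visual score from 0 to 9 compares treated with control plants four to five weeks on.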

CASOB (Sicklepod) [1] = test: Postemergence herbicidal evaluation; type: in vivo, Cassia obtusifolia; conditions: postemergence
Summary of the method: as §1

GALAP (Galium) = test: Postemergence herbicidal evaluation; type: in vivo, Galium aparine; conditions: postemergence
Summary of the method: as §1

[2] = test system: IPOHE (Morningglory, Ivyleaf); test: Postemergence herbicidal evaluation; type: in vivo, Ipomoea hederacea; conditions: postemergence
Summary of the method: as §1

ABUTH (Velvetleaf) = test: Preemergence herbicidal evaluation; type: in vivo, Abutilon theophrasti; conditions: preemergence, rated 4-5 weeks after treatment, 0-9 scale
Summary of the method: (§2)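 Herbicidal effect scored visually, 0-9, at 4 to 5 weeks against a control; compound applied preemergence by aqueous acetone spray to seeded soil at about 0.0156 to 0.500 kg/ha.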

CASOB (Sicklepod) [3] = test: Preemergence herbicidal evaluation; type: in vivo, Cassia obtusifolia; conditions: preemergence, rated 4-5 weeks after treatment, 0-9 scale
Summary of the method: as §2

[4] = test system: IPOHE (Morningglory, Ivyleaf); test: Preemergence herbicidal evaluation; type: in vivo, Ipomoea hederacea; conditions: preemergence, rated 4-5 weeks after treatment, 0-9 scale
Summary of the method: as §2

ECHCG (Barnyardgrass) = test: Preemergence herbicidal evaluation; type: in vivo, Echinochloa crus-galli; conditions: preemergence, rated 4-5 weeks after treatment, 0-9 scale
Summary of the method: as §2

[5] = test system: GLXMAW (Soybean, Williams); test: Preemergence herbicidal evaluation; type: in vivo, Glycine max, (L.) Merr. cv Williams; conditions: preemergence, rated 4-5 weeks after treatment, 0-9 scale
Summary of the method: as §2

[6] = test system: TRZAWR (Wheat, Winter, cv Riband); test: Preemergence herbicidal evaluation; type: in vivo, Triticum aestivum; conditions: preemergence, rated 4-5 weeks after treatment, 0-9 scale
Summary of the method: as §2

ZEAMX (Corn, Field) = test: Preemergence herbicidal evaluation; type: in vivo, Zea mays; conditions: preemergence, rated 4-5 weeks after treatment, 0-9 scale
Summary of the method: as §2

MOOVA (Monochoria) = test: Preemergence weed control under flooded paddy conditions; type: in vivo, Monochoria vaginalis; conditions: rated 3-4 weeks after treatment
Summary of the method: (§3)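 Flooded-pot preemergence screen with silt loam and seeds in the upper 0.5 cm. Dose about 0.0313 to 0.500 kg/ha, delivered into flood water; visual 0-9 score after 3 to 4 weeks.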

[7] = test system: SAGPY (Arrowhead (Pygmaea)); test: as above; type: in vivo, Sagittaria pygmaea; conditions: rated 3-4 weeks after treatment
Summary of the method: as §3

CYPIR (Rice Flatsedge) = test: Postemergence weed control under flooded paddy conditions; type: in vivo, Cyperus iria; conditions: postemergence weeds, rated 3 to 4 weeks after treatment
Summary of the method: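 Injury ratings (0–9 scale covering stand, vigor, malformation, size, chlorosis and overall appearance versus control) were made three to four weeks after treatment. Test material, about 0.0313 to 0.500 kg/ha a.i. in 50/50 v/v aqueous/acetone, was added to flood water 1.5 to 3 cm deep over 3 to 5 cm weeds and 1.5 to 2.5 leaf rice.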

`C=CCN1C(=O)C(CC(=O)OCCF)SC1=Nc1cc(-n2c(=O)cc(C(F)(F)F)n(C)c2=O)c(F)cc1Cl` (stereo not shown) [Compound 86, 2-Fluoroethyl 3-allyl-2-{{2-chloro-5-[3,6-dihydro-3-methyl-2,6-dioxo-4-(trifluoromethyl)-1(2H)-pyrimidinyl]-4-fluorophenyl}imino}-4-oxo-5-thiazolidineacetate] showed an AMBEL herbicidal rating (AMBEL (Ragweed, Common); rate 0.0156 kg/ha) of 9.0, an AMBEL herbicidal rating (AMBEL (Ragweed, Common); rate 0.0313 kg/ha) of 9.0 and an AMBEL herbicidal rating (AMBEL (Ragweed, Common); rate 0.0625 kg/ha) of 9.0. It also gave an AMBEL herbicidal rating (AMBEL (Ragweed, Common); rate 0.1250 kg/ha) of 9.0, a CASOB herbicidal rating (CASOB (Sicklepod) [1]; rate 0.0156 kg/ha) of 1.0 and a CASOB herbicidal rating (CASOB (Sicklepod) [1]; rate 0.0313 kg/ha) of 2.0. It also gave a CASOB herbicidal rating (CASOB (Sicklepod) [1]; rate 0.0625 kg/ha) of 7.0, a CASOB herbicidal rating (CASOB (Sicklepod) [1]; rate 0.1250 kg/ha) of 9.0 and a GALAP herbicidal rating (GALAP (Galium); rate 0.0156 kg/ha) of 2.0. For the same compound, the GALAP herbicidal rating (GALAP (Galium); rate 0.0313 kg/ha) was 5.0, the GALAP herbicidal rating (GALAP (Galium); rate 0.0625 kg/ha) was 9.0 and the GALAP herbicidal rating (GALAP (Galium); rate 0.1250 kg/ha) was 9.0. For the same compound, the IPOHE herbicidal rating ([2]; rate 0.0156 kg/ha) was 9.0, the IPOHE herbicidal rating ([2]; rate 0.0313 kg/ha) was 9.0 and the IPOHE herbicidal rating ([2]; rate 0.0625 kg/ha) was 9.0. It also gave an IPOHE herbicidal rating ([2]; rate 0.1250 kg/ha) of 9.0, an ABUTH rating (ABUTH (Velvetleaf); 0.0156 kg/ha) of 9.0 and an ABUTH rating (ABUTH (Velvetleaf); 0.0313 kg/ha) of 9.0. For the same compound, the ABUTH rating (ABUTH (Velvetleaf); 0.0625 kg/ha) was 9.0, the ABUTH rating (ABUTH (Velvetleaf); 0.1250 kg/ha) was 9.0 and the ABUTH rating (ABUTH (Velvetleaf); 0.2500 kg/ha) was 9.0. The ABUTH rating (ABUTH (Velvetleaf); 0.5000 kg/ha) was 9.0, the CASOB rating (CASOB (Sicklepod) [3]; 0.0156 kg/ha) was 0.0 and the CASOB rating (CASOB (Sicklepod) [3]; 0.0313 kg/ha) was 0.0. It also gave a CASOB rating (CASOB (Sicklepod) [3]; 0.0625 kg/ha) of 0.0, a CASOB rating (CASOB (Sicklepod) [3]; 0.1250 kg/ha) of 0.0 and a CASOB rating (CASOB (Sicklepod) [3]; 0.2500 kg/ha) of 0.0. It also gave a CASOB rating (CASOB (Sicklepod) [3]; 0.5000 kg/ha) of 3.0, an IPOHE rating ([4]; 0.0156 kg/ha) of 0.0 and an IPOHE rating ([4]; 0.0313 kg/ha) of 0.0. The IPOHE rating ([4]; 0.0625 kg/ha) was 8.0, the IPOHE rating ([4]; 0.1250 kg/ha) was 9.0 and the IPOHE rating ([4]; 0.2500 kg/ha) was 9.0. For the same compound, the IPOHE rating ([4]; 0.5000 kg/ha) was 9.0, the ECHCG rating (ECHCG (Barnyardgrass); 0.0156 kg/ha) was 0.0 and the ECHCG rating (ECHCG (Barnyardgrass); 0.0313 kg/ha) was 0.0. The ECHCG rating (ECHCG (Barnyardgrass); 0.0625 kg/ha) was 0.0, the ECHCG rating (ECHCG (Barnyardgrass); 0.1250 kg/ha) was 0.0 and the ECHCG rating (ECHCG (Barnyardgrass); 0.2500 kg/ha) was 0.0. The ECHCG rating (ECHCG (Barnyardgrass); 0.5000 kg/ha) was 4.0, the GLXMAW rating ([5]; 0.0156 kg/ha) was 0.0 and the GLXMAW rating ([5]; 0.0313 kg/ha) was 0.0. The GLXMAW rating ([5]; 0.0625 kg/ha) was 0.0, the GLXMAW rating ([5]; 0.1250 kg/ha) was 0.0 and the GLXMAW rating ([5]; 0.2500 kg/ha) was 4.0. The GLXMAW rating ([5]; 0.5000 kg/ha) was 8.0, the TRZAWR rating ([6]; 0.0156 kg/ha) was 0.0 and the TRZAWR rating ([6]; 0.0313 kg/ha) was 0.0. The TRZAWR rating ([6]; 0.0625 kg/ha) was 0.0, the TRZAWR rating ([6]; 0.1250 kg/ha) was 0.0 and the TRZAWR rating ([6]; 0.2500 kg/ha) was 2.0. For the same compound, the TRZAWR rating ([6]; 0.5000 kg/ha) was 6.0, the ZEAMX rating (ZEAMX (Corn, Field); 0.0156 kg/ha) was 0.0 and the ZEAMX rating (ZEAMX (Corn, Field); 0.0313 kg/ha) was 0.0. The ZEAMX rating (ZEAMX (Corn, Field); 0.0625 kg/ha) was 0.0, the ZEAMX rating (ZEAMX (Corn, Field); 0.1250 kg/ha) was 0.0 and the ZEAMX rating (ZEAMX (Corn, Field); 0.2500 kg/ha) was 4.0. For the same compound, the ZEAMX rating (ZEAMX (Corn, Field); 0.5000 kg/ha) was 9.0, the “MOOVA herbicidal effect rating” value (MOOVA (Monochoria); 0.0313 kg/ha) was 9.0 and the “MOOVA herbicidal effect rating” value (MOOVA (Monochoria); 0.0625 kg/ha) was 9.0. For the same compound, the “MOOVA herbicidal effect rating” value (MOOVA (Monochoria); 0.1250 kg/ha) was 9.0, the “MOOVA herbicidal effect rating” value (MOOVA (Monochoria); 0.2500 kg/ha) was 9.0 and the “SAGPY herbicidal effect rating” value ([7]; 0.0313 kg/ha) was 5.0. For the same compound, the “SAGPY herbicidal effect rating” value ([7]; 0.0625 kg/ha) was 9.0, the “SAGPY herbicidal effect rating” value ([7]; 0.1250 kg/ha) was 9.0 and the “SAGPY herbicidal effect rating” value ([7]; 0.2500 kg/ha) was 9.0. The “Herbicidal rating CYPIR” value (CYPIR (Rice Flatsedge); Rate 0.0313 kg/ha) was 3.0, the “Herbicidal rating CYPIR” value (CYPIR (Rice Flatsedge); Rate 0.0625 kg/ha) was 7.0 and the “Herbicidal rating CYPIR” value (CYPIR (Rice Flatsedge); Rate 0.1250 kg/ha) was 8.0. The “Herbicidal rating CYPIR” value (CYPIR (Rice Flatsedge); Rate 0.2500 kg/ha) was 9.0.
